Five molecules from US7834179B2, “Spiroindolinone derivatives” (Hoffmann-La Roche Inc., priority 2007, dated 2010) can be followed below.

The term pIC50 denotes the IC50 on a negative log10 scale, so that one unit is a factor of ten.

Each structure is given as a SMILES string. pIC50: −log10 of the molar value.

Sequence of interaction between p53 and MDM2 proteins (Q00987 whole entry): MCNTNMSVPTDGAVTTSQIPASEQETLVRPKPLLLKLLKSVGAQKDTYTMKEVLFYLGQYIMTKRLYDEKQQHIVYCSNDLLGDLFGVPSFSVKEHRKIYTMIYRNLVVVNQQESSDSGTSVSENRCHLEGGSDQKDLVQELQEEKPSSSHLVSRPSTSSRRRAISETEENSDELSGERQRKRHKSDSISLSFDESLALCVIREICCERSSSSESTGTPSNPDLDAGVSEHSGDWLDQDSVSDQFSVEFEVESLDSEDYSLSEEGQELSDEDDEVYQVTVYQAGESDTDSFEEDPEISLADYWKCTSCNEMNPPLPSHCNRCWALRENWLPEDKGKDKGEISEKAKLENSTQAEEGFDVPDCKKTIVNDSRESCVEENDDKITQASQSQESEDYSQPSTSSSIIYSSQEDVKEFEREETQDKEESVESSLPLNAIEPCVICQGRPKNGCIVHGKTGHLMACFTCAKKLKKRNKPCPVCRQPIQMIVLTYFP

The test has as its target interaction between p53 and MDM2 proteins (Homo sapiens, UniProt Q00987). Description: HTRF assay of inhibition of p53-MDM2 interaction (GST-MDM2 / biotinylated p53 peptide). Format: binding. The settings on record: recombinant GST-tagged MDM2 and biotinylated p53 peptide, 37° C. for 1 h. How it is done:
The ability of the compounds to inhibit the interaction between p53 and MDM2 proteins was measured by an HTRF (homogeneous time-resolved fluorescence) assay in which recombinant GST-tagged MDM2 binds to a peptide that resembles the MDM2-interacting region of p53 (Lane et al.). Binding of GST-MDM2 protein and p53-peptide (biotinylated on its N-terminal end) is registered by the FRET (fluorescence resonance energy transfer) between Europium (Eu)-labeled anti-GST antibody and streptavidin-conjugated Allophycocyanin (APC).
Test is performed in black flat-bottom 384-well plates (Costar) in a total volume of 40 uL containing: 90 nM biotinylate peptide, 160 ng/ml GST-MDM2, 20 nM streptavidin-APC (PerkinElmerWallac), […] Eu-labeled anti-GST-antibody (PerkinElmerWallac), 0.2% bovine serum albumin (BSA), 1 mM dithiothreitol (DTT) and 20 mM Tris-borate seine (TBS) buffer as follows: Add 10 uL of GST-MDM2 (640 ng/ml working solution) in reaction buffer to each well. Add 10 uL diluted compounds (1:5 dilution in reaction buffer) to each well, mix by shaking. Add 20 uL biotinylated p53 peptide (180 nM working solution) in reaction buffer to
each well and mix on shaker. Incubate at 37° C. for 1 h. Add 20 uL streptavidin-APC and Eu-anti-GST antibody mixture (6 nM Eu-anti-GST and 60 nM streptavidin-APC working solutions), in TBS buffer with 0.2% BSA, shake at room temperature for 30 minutes and read using a TRF-capable plate reader at 665 and 615 nm (Victor 5, Perkin ElmerWallac). If not specified, the reagents were purchased from Sigma, Chemical Co.
A general note: Time-resolved FRET reads energy transfer from a long-lived donor to a nearby acceptor.
On to `Cc1ccc(F)cc1[C@H]1N2CC(=O)N(C)N=C2C[C@@H](c2cccc(Cl)c2)[C@]12C(=O)Nc1cc(Cl)ccc12` (racemic) [Example 1i, (6′R, 3R, 8′S)-6-chloro-8′-(3-chlorophenyl)-6′-(5-fluoro-2-methylphenyl)-2′-methyl-6′,7′,8′,9′-tetrahydro spiro[3H-indole-3,7′-(2H-pyrido[2,1-c][1,2,4]triazine)]-2,3′(1H)-dione], for which the pIC50 was 6.72.

As to `C=C(CC)[C@H]1N2CC(=O)N(CCCN(C)C)N=C2C[C@@H](c2cccc(Cl)c2)[C@]12C(=O)Nc1cc(Cl)ccc12` (racemic) [Example 5b, (6′R, 3R, 8′S)-6-chloro-8′-(3-chlorophenyl)-2′-(3-dimethylaminopropyl)-6′-(1-methylene-propyl)-6′,7′,8′,9′-tetrahydro spiro[3H-indole-3,7′-(2H-pyrido[2,1-c][1,2,4]triazine)]-2,3′(1H)-dione], the pIC50 was 7.00.

`C=C(CC)[C@H]1N2CC(=O)N(CCOC(C)=O)N=C2C[C@@H](c2cccc(Cl)c2)[C@]12C(=O)Nc1cc(Cl)ccc12` (racemic) [Example 7b, (6′R, 3R, 8′S)-2′-(2-acetoxyethyl)-6-chloro-8′-(3-chlorophenyl)-6′-(1-methylene-propyl)-6′,7′,8′,9′-tetrahydro spiro[3H-indole-3,7′-(2H-pyrido[2,1-c][1,2,4]triazine)]-2,3′(1H)-dione]: the pIC50 is 6.05.

For the molecule `C=CCOc1ccc(I)cc1[C@H]1N2CC(=O)N(C)N=C2C[C@@H](c2cccc(Cl)c2)[C@]12C(=O)Nc1cc(Cl)ccc12` (racemic) [Example 18g, (6′R, 3R, 8′S)-6′-(2-allyloxy-5-iodo-phenyl)-6-chloro-8′-(3-chlorophenyl)-2′-methyl-6′,7′,8′,9′-tetrahydro spiro[3H-indole-3,7′-(2H-pyrido[2,1-c][1,2,4]triazine)]-2,3′(1H)-dione], the pIC50 is 6.57.

Consider `C=C(CC)[C@H]1N2CC(=O)N(CC(=O)NCCO)N=C2C[C@@H](c2cccc(Cl)c2)[C@]12C(=O)Nc1cc(Cl)ccc12` [Example 11c, (6′R, 3R, 8′S)-6-chloro-8′-(3-chlorophenyl)-2′-[(2-hydroxyethylamino)carbonyl-methyl]-6′-(1-methylene-propyl)-6′,7′,8′,9-tetrahydro spiro[3H-indole-3,7′-(2H-pyrido[2,1-c][1,2,4]triazine)]-2,3′(1H)-dione], for which the pIC50 is 6.53.
